In article PMC11354514, “Synthesis and Anti-Cancer Activity of the Novel Selective Glucocorticoid Receptor Agonists of the Phenylethanolamine Series” (International Journal of Molecular Sciences, 2024):
pIC50: −log10 of the molar value. Like-named read-outs stand apart in the source and are kept apart here.

Target: T1, glucocorticoid receptor (GR) (Homo sapiens, UniProt P04150)
T1 construct: gene NR3C1
T1 sequence (P04150 1-777): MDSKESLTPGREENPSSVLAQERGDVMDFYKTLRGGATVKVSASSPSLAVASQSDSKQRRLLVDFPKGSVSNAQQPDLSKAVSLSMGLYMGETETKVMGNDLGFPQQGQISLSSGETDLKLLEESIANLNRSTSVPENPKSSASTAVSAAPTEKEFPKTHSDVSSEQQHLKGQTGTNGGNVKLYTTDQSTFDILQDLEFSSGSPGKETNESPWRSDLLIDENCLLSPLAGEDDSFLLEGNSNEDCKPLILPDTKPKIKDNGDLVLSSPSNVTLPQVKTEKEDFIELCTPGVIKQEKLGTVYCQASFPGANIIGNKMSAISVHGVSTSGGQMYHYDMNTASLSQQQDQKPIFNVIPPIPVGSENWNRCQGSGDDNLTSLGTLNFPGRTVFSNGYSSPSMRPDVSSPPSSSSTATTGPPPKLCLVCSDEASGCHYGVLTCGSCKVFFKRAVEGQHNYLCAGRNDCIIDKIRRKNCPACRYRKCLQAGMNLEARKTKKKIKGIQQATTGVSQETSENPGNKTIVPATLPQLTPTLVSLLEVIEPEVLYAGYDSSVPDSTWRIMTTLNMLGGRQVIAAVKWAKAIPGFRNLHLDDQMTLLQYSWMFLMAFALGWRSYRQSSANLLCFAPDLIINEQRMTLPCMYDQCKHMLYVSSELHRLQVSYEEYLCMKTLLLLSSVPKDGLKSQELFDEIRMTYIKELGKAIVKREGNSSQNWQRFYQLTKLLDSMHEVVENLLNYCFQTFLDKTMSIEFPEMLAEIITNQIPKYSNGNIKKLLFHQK
Assay: [3H]Dex competition radioligand binding in whole K562 cells (endogenous GR)
Assay type: cell-based

pIC50 (read-out: IC50)	SMILES	pIC50
	CNCC(Cl)c1ccc(OC(C)=O)cc1 (centres unmarked) [CpdA, 2-(4-acetoxyphenyl)-2-chloro-N-methylethylammonium-chloride]	5.60
6.82	Oc1ccc(C(O)CN2CCCCC2)cc1 (centres unmarked) [CpdA-03, 4-(1-hydroxy-2-(piperidin-1-yl)ethyl)phenol]	
